In patent US20170290774A1, “NEUROKININ-1 RECEPTOR ANTAGONIST COMPOSITION FOR TREATMENT OF DISEASES AND CONDITIONS OF THE RESPIRATORY TRACT” (PLUS VITECH, S.L., priority 2014, published 2017):

Experiments:
TGFβ2 = experiment: Immunohistochemistry of TGFβ2 in respiratory tract tissue of sodium hypochlorite aerosol-treated rabbits; format: in vivo, New Zealand albino rabbits
Text: (§1) It is known that the factors TGF-α, TGF-β 1, TGF-β 2, TGF-β 3, SPARC, MMP-3; MMP-7, MMP-9, MMP-11, MMP-13 and MMP-14, TGF-β, NF-kB, EGF, MMP-9, VEGF and TNF-α which are produced by lung cells (pneumocytes, fibroblasts and vascular endothelial cells) and inflammatory cells (macrophages, lymphocytes and polymorphonuclear leukocytes) are involved in the pathophysiology and development of said respiratory tract diseases. […] Herein, 27 New Zealand albino rabbits (New Zealand White Rabbit) with an initial average weight about 3 kg were used in this example. All subjects were administered an aerosol of a solution consisting of a mixture of water and sodium hypochlorite (35 g sodium hypochlorite per liter of water) at a rate of 5 mL of said solution by inhalation three times a day for 7 days (days 1 to 7 of experimentation). Subsequently, from days 3 to 7, a group of 3 rabbits (Group 1) was administered an oral dose of 10 mg/kg body weight per day, another group of 3 rabbits (Group 2) was administered an oral dose of 40 mg/kg body weight per day, a third group (Group 3) was administered an oral dose of 80 mg/kg body weight per day and a fourth group (Group 4) was administered an oral dose of 100 mg/kg body weight per day. […] This mixture was administered as an aerosol by inhalation, also from days 3 to 7, to a group of 3 rabbits (group 5) at a dose of 0.05 mg/kg body weight per day, to another group of three rabbits (Group 6) at a dose of 0.1 mg/kg body weight per day, to another group of three rabbits (Group 7) at a dose of 0.2 mg/kg body weight per day and to another group of three rabbits (Group 8) at a dose of 0.4 mg/kg body weight per day. A placebo consisting only of olive oil was administered from days 3 to 7 to a control group of 3 rabbits (placebo group). In parallel, 3 rabbits were kept under identical conditions but were not administered any treatment nor the aforementioned sodium hypochlorite solution (control group). […] On day 7 of the experiment all animals were euthanized and necropsied. […] Samples were taken at the peripheral level of the lung parenchyma, just below the pleural surface. Tissue samples were also taken from the nasal cavity, pharynx, larynx and bronchi. Immunohistochemistry studies were performed for all samples to evaluate the levels of the markers TGF-α, TGF-β 1, TGF-β 2, TGF-β 3 SPARC, MMP-3; MMP-7, MMP-9, MMP-11, MMP-14, TGF-β, TNF-α and VEGF. In said immunohistochemistry studies, a sample of each sample was dehydrated by treatment with increasing concentrations of ethanol and finally xylene. Subsequently said dried samples were embedded in paraffin, thus creating a block. Said paraffin blocks were cut on a microtome to a thickness of 5 μm, and the resulting sections (slices) were placed on slides suitable for conducting immunohistochemistry techniques. Subsequently, the sections were deparaffinised by immersion in xylene and then rehydrated through immersion in a series of solutions containing decreasing concentrations of ethanol and, finally, water. […] The samples were then allowed to cool to room temperature over 10 minutes. Endogenous peroxidase activity was blocked by treatment with 3% hydrogen peroxide over 30 min at room temperature. […] In order to verify the expression of NK1 receptors, the cell samples were incubated in the presence of anti-NK1 antibodies ([…], Sigma-Aldrich) diluted 1:1000 at 4° C. overnight. After this time they were washed in 0.05M Tris buffer at room temperature. Subsequently, Envision System-HRP (Dako) reagents were added for 30 min at room temperature. Once this time had expired, the samples were again washed with 0.05 M Tris buffer, and immunoreactivity was visualized by light microscopy with a chromogenic solution with 3,3'-diaminobenzidine (DAB+; Dako, USA). In order to differentiate the cell nuclei, these were lightly stained with haematoxylin. Samples that were not incubated with the primary antibody, but wherein this was replaced by a non-immune serum were used as negative controls. […]

TGFβ1 = experiment: Immunohistochemistry of TGFβ1 in respiratory tract tissue of sodium hypochlorite aerosol-treated rabbits; format: in vivo, New Zealand albino rabbits
Text: as §1

CYP3A4 = target: T1, CYP3A4 (Homo sapiens, UniProt P08684); conditions: human hepatic microsomes; cited from earlier work
T1 construct: In vitro studies in which human hepatic microsomes were used; from tissue; host or cells: human hepatic (liver) microsomes
T1 sequence (P08684 whole entry): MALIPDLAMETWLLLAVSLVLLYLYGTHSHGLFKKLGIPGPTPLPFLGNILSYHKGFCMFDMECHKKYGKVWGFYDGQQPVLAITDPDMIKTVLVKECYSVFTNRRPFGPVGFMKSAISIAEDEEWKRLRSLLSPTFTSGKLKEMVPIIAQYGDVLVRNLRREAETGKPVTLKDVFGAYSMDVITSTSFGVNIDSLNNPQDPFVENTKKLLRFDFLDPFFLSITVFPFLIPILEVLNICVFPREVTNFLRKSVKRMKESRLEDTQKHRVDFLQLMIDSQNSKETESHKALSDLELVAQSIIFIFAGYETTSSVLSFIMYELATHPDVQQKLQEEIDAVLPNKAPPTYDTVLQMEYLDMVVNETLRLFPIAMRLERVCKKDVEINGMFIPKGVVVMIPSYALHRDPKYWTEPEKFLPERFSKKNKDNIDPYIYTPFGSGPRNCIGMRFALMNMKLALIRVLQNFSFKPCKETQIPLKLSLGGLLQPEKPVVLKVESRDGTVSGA

[1] = bronchial tissue, Group 1, oral 10 mg/kg per day
[2] = bronchial tissue, Group 2, oral 40 mg/kg per day
[3] = bronchial tissue, Group 3, oral 80 mg/kg per day
[4] = bronchial tissue, Group 4, oral 100 mg/kg per day
[5] = laryngeal tissue, Group 1, oral 10 mg/kg per day
[6] = laryngeal tissue, Group 2, oral 40 mg/kg per day
[7] = laryngeal tissue, Group 3, oral 80 mg/kg per day
[8] = laryngeal tissue, Group 4, oral 100 mg/kg per day
[9] = laryngeal tissue, Group 5, inhalation 0.05 mg/kg per day
[10] = laryngeal tissue, Group 6, inhalation 0.1 mg/kg per day
[11] = laryngeal tissue, Group 7, inhalation 0.2 mg/kg per day
[12] = laryngeal tissue, Group 8, inhalation 0.4 mg/kg per day
[13] = lung tissue, Group 1, oral 10 mg/kg per day
[14] = lung tissue, Group 2, oral 40 mg/kg per day
[15] = lung tissue, Group 3, oral 80 mg/kg per day
[16] = lung tissue, Group 4, oral 100 mg/kg per day
[17] = lung tissue, Group 5, inhalation 0.05 mg/kg per day
[18] = lung tissue, Group 6, inhalation 0.1 mg/kg per day
[19] = lung tissue, Group 7, inhalation 0.2 mg/kg per day
[20] = lung tissue, Group 8, inhalation 0.4 mg/kg per day
[21] = nasal cavity tissue, Group 1, oral 10 mg/kg per day
[22] = nasal cavity tissue, Group 2, oral 40 mg/kg per day
[23] = nasal cavity tissue, Group 3, oral 80 mg/kg per day
[24] = nasal cavity tissue, Group 4, oral 100 mg/kg per day
[25] = nasal cavity tissue, Group 5, inhalation 0.05 mg/kg per day
[26] = nasal cavity tissue, Group 6, inhalation 0.1 mg/kg per day
[27] = nasal cavity tissue, Group 7, inhalation 0.2 mg/kg per day
[28] = nasal cavity tissue, Group 8, inhalation 0.4 mg/kg per day
[29] = pharyngeal tissue, Group 1, oral 10 mg/kg per day
[30] = pharyngeal tissue, Group 2, oral 40 mg/kg per day
[31] = pharyngeal tissue, Group 3, oral 80 mg/kg per day
[32] = pharyngeal tissue, Group 4, oral 100 mg/kg per day
[33] = pharyngeal tissue, Group 5, inhalation 0.05 mg/kg per day
[34] = pharyngeal tissue, Group 6, inhalation 0.1 mg/kg per day
[35] = pharyngeal tissue, Group 7, inhalation 0.2 mg/kg per day
[36] = pharyngeal tissue, Group 8, inhalation 0.4 mg/kg per day

With `C[C@@H](OC1OCCN(Cc2nc(=O)[nH][nH]2)C1c1ccc(F)cc1)c1cc(C(F)(F)F)cc(C(F)(F)F)c1` (stereo in doubt) [Aprepitant, 5-([(2R,3S)-2-((R)-1-[3,5-bis(trifluoromethyl)phenyl]ethoxy)-3-(4-fluorophenyl)morpholino]methyl)-1H-1,2,4-triazol-3(2H)-one] the “Percent increase in TGFβ2 with respect to the control group” value (from here on “Percent increase in TGFβ2”) (TGFβ2; [1]) was 1,342.12%, the “Percent increase in TGFβ2” value (TGFβ2; [2]) was 1,008.32% and the “Percent increase in TGFβ2” value (TGFβ2; [3]) was 878.34%. The “Percent increase in TGFβ2” value (TGFβ2; [4]) was 457.45%, the “% Med G5/C: percent increase in marker TGFβ2 with respect to the control group” value (TGFβ2; bronchial tissue, Group 5) was 1,209.34% and the “% Med G6/C: percent increase in marker TGFβ2 with respect to the control group” value (TGFβ2; bronchial tissue, Group 6) was 878.45%. The “% Med G7/C: percent increase in marker TGFβ2 with respect to the control group” value (TGFβ2; bronchial tissue, Group 7) was 328.45%, the “% Med G8/C: percent increase in marker TGFβ2 with respect to the control group” value (TGFβ2; bronchial tissue, Group 8) was 126.45% and the “Percent increase in TGFβ2” value (TGFβ2; [5]) was 1,789.56%. The “Percent increase in TGFβ2” value (TGFβ2; [6]) was 1,398.89%, the “Percent increase in TGFβ2” value (TGFβ2; [7]) was 989.89% and the “Percent increase in TGFβ2” value (TGFβ2; [8]) was 816.89%. The “Percent increase in TGFβ2” value (TGFβ2; [9]) was 1,506.89%, the “Percent increase in TGFβ2” value (TGFβ2; [10]) was 996.89% and the “Percent increase in TGFβ2” value (TGFβ2; [11]) was 560.38%. The “Percent increase in TGFβ2” value (TGFβ2; [12]) was 120.23%, the “Percent increase in TGFβ2” value (TGFβ2; [13]) was 775.23% and the “Percent increase in TGFβ2” value (TGFβ2; [14]) was 582.05%. For the same compound, the “Percent increase in TGFβ2” value (TGFβ2; [15]) was 475.25%, the “Percent increase in TGFβ2” value (TGFβ2; [16]) was 438.55% and the “Percent increase in TGFβ2” value (TGFβ2; [17]) was 797.78%. The “Percent increase in TGFβ2” value (TGFβ2; [18]) was 338.44%, the “Percent increase in TGFβ2” value (TGFβ2; [19]) was 198.92% and the “Percent increase in TGFβ2” value (TGFβ2; [20]) was 125.88%. For the same compound, the “Percent increase in TGFβ2” value (TGFβ2; [21]) was 1,838.85%, the “Percent increase in TGFβ2” value (TGFβ2; [22]) was 1,469.70% and the “Percent increase in TGFβ2” value (TGFβ2; [23]) was 1,290.84%. The “Percent increase in TGFβ2” value (TGFβ2; [24]) was 1,151.85%, the “Percent increase in TGFβ2” value (TGFβ2; [25]) was 1,451.21% and the “Percent increase in TGFβ2” value (TGFβ2; [26]) was 825.63%. The “Percent increase in TGFβ2” value (TGFβ2; [27]) was 252.52%, the “Percent increase in TGFβ2” value (TGFβ2; [28]) was 136.09% and the “Percent increase in TGFβ2” value (TGFβ2; [29]) was 1,575.67%. The “Percent increase in TGFβ2” value (TGFβ2; [30]) was 1,235.45%, the “Percent increase in TGFβ2” value (TGFβ2; [31]) was 980.65% and the “Percent increase in TGFβ2” value (TGFβ2; [32]) was 780.54%. For the same compound, the “Percent increase in TGFβ2” value (TGFβ2; [33]) was 1,202.46%, the “Percent increase in TGFβ2” value (TGFβ2; [34]) was 725.63% and the “Percent increase in TGFβ2” value (TGFβ2; [35]) was 252.52%. For the same compound, the “Percent increase in TGFβ2” value (TGFβ2; [36]) was 136.09%, the “Percent increase in TGFβ1 with respect to the control group” value (shortened to “Percent increase in TGFβ1”) (TGFβ1; [1]) was 1,234.56% and the “Percent increase in TGFβ1” value (TGFβ1; [2]) was 984.45%. For the same compound, the “Percent increase in TGFβ1” value (TGFβ1; [3]) was 768.32%, the “Percent increase in TGFβ1” value (TGFβ1; [4]) was 502.23% and the “% Med G5/C: percent increase in marker TGFβ1 with respect to the control group” value (TGFβ1; bronchial tissue, Group 5) was 1,103.34%. For the same compound, the “% Med G6/C: percent increase in marker TGFβ1 with respect to the control group” value (TGFβ1; bronchial tissue, Group 6) was 708.45%, the “% Med G7/C: percent increase in marker TGFβ1 with respect to the control group” value (TGFβ1; bronchial tissue, Group 7) was 302.34% and the “% Med G8/C: percent increase in marker TGFβ1 with respect to the control group” value (TGFβ1; bronchial tissue, Group 8) was 124.37%. The “Percent increase in TGFβ1” value (TGFβ1; [5]) was 1,567.67%, the “Percent increase in TGFβ1” value (TGFβ1; [6]) was 1,278.89% and the “Percent increase in TGFβ1” value (TGFβ1; [7]) was 1,067.78%. The “Percent increase in TGFβ1” value (TGFβ1; [8]) was 988.78%, the “Percent increase in TGFβ1” value (TGFβ1; [9]) was 1,398.78% and the “Percent increase in TGFβ1” value (TGFβ1; [10]) was 760.87%. For the same compound, the “Percent increase in TGFβ1” value (TGFβ1; [11]) was 320.34%, the “Percent increase in TGFβ1” value (TGFβ1; [12]) was 102.23% and the “Percent increase in TGFβ1” value (TGFβ1; [13]) was 1,277.48%. For the same compound, the “Percent increase in TGFβ1” value (TGFβ1; [14]) was 990.28%, the “Percent increase in TGFβ1” value (TGFβ1; [15]) was 858.27% and the “Percent increase in TGFβ1” value (TGFβ1; [16]) was 759.25%. For the same compound, the “Percent increase in TGFβ1” value (TGFβ1; [17]) was 1,166.88%, the “Percent increase in TGFβ1” value (TGFβ1; [18]) was 492.89% and the “Percent increase in TGFβ1” value (TGFβ1; [19]) was 270.24%. The “Percent increase in TGFβ1” value (TGFβ1; [20]) was 123.01%, the “Percent increase in TGFβ1” value (TGFβ1; [21]) was 2,191.33% and the “Percent increase in TGFβ1” value (TGFβ1; [22]) was 1,562.26%. For the same compound, the “Percent increase in TGFβ1” value (TGFβ1; [23]) was 1,491.16%, the “Percent increase in TGFβ1” value (TGFβ1; [24]) was 1,373.96% and the “Percent increase in TGFβ1” value (TGFβ1; [25]) was 2,065.52%. The “Percent increase in TGFβ1” value (TGFβ1; [26]) was 745.49%, the “Percent increase in TGFβ1” value (TGFβ1; [27]) was 480.80% and the “Percent increase in TGFβ1” value (TGFβ1; [28]) was 138.39%. For the same compound, the “Percent increase in TGFβ1” value (TGFβ1; [29]) was 2,198.45%, the “Percent increase in TGFβ1” value (TGFβ1; [30]) was 1,562.45% and the “Percent increase in TGFβ1” value (TGFβ1; [31]) was 1,208.45%. For the same compound, the “Percent increase in TGFβ1” value (TGFβ1; [32]) was 1,001.31%, the “Percent increase in TGFβ1” value (TGFβ1; [33]) was 1,804.23% and the “Percent increase in TGFβ1” value (TGFβ1; [34]) was 1,220.34%. For the same compound, the “Percent increase in TGFβ1” value (TGFβ1; [35]) was 609.67%, the “Percent increase in TGFβ1” value (TGFβ1; [36]) was 121.89% and the metabolising enzyme (CYP3A4) was “principally metabolized by CYP3A4”.
